Measured values reported in PubChem BioAssay (NCI).
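Assay format: 96-well plates, 48-hour exposure. Here, GI50 denotes the concentration required for 50% inhibition of growth. TGI: concentration producing complete growth inhibition.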

Assays:
Experiment in all cases: NCI anticancer screen, dose series, 48 h
LOX IMVI melanoma = tested on: LOX IMVI melanoma
CCRF-CEM leukemia = tested on: CCRF-CEM leukemia
MOLT-4 leukemia = tested on: MOLT-4 leukemia
NCI-H226 lung = tested on: NCI-H226 lung
RPMI-8226 leukemia = tested on: RPMI-8226 leukemia
COLO 205 colon = tested on: COLO 205 colon
NCI-H23 lung = tested on: NCI-H23 lung
UACC-257 melanoma = tested on: UACC-257 melanoma
NCI-H522 lung = tested on: NCI-H522 lung
SK-OV-3 ovarian = tested on: SK-OV-3 ovarian

SMILES | TGI (LOX IMVI melanoma) [µM] | TGI (CCRF-CEM leukemia) [µM] | TGI (MOLT-4 leukemia) [µM] | TGI (NCI-H226 lung) [µM] | TGI (RPMI-8226 leukemia) [µM] | TGI (COLO 205 colon) [µM] | TGI (NCI-H23 lung) [µM] | TGI (UACC-257 melanoma) [µM] | TGI (NCI-H522 lung) [µM] | GI50 (SK-OV-3 ovarian) [µM] | TGI (SK-OV-3 ovarian) [µM] | GI50 (LOX IMVI melanoma) [µM] | GI50 (CCRF-CEM leukemia) [µM] | GI50 (MOLT-4 leukemia) [µM] | GI50 (NCI-H226 lung) [µM] | GI50 (RPMI-8226 leukemia) [µM] | GI50 (COLO 205 colon) [µM] | GI50 (NCI-H23 lung) [µM] | GI50 (UACC-257 melanoma) [µM] | GI50 (NCI-H522 lung) [µM]
O=C1CCCCCCCCCCC1CN1CCCCC1 (configuration not stated) | > 100 | > 100 | > 100 | 82.4 | > 100 | > 100 | > 100 | > 100 | > 100 |  |  |  |  |  |  |  |  |  |  | 
N#CCN/C=C\C(=O)c1ccc(Cl)cc1 | > 100 | > 100 | > 100 | > 100 | > 100 | > 100 | 86.2 | > 100 | > 100 | 34.7 | > 100 | 31.5 | 0.398 | 21.3 | 30 | 22.6 | 32.7 | 32.9 | 31.9 | > 100
COc1ccc(/C=N\Nc2ccc([N+](=O)[O-])cn2)cc1OC | > 100 | > 100 | > 100 | > 100 |  |  | > 100 | > 100 | > 100 | 3.48 | 24.3 | > 100 | > 100 | > 100 | 8.39 |  |  | 53.2 | > 100 | > 100
CC(C)(C)C1CCC2c3c([nH]c4ccccc34)C3C(=O)N(c4ccccc4)C(=O)C3C2C1 (configuration not stated) | 15.3 | 11 | 14 | 21.6 | 28.4 | 17.8 | 40.1 |  |  |  | 5.18 |  |  |  |  |  |  |  |  | 
C=C(Nc1ccc([N+](=O)[O-])cc1[N+](=O)[O-])c1c/c(=N\NC(N)=S)c2ccccc2o1 | > 100 | > 100 | > 100 | > 100 |  | > 100 | > 100 | > 100 | > 100 |  | > 100 |  |  |  |  |  |  |  |  | 
CN/N=C(\C)C(CN(C)C)C(c1ccccc1)c1c(O)c2ccccc2oc1=O (configuration not stated) | > 100 | > 100 | > 100 | > 100 | > 100 | > 100 | > 100 | > 100 | > 100 |  |  |  |  |  |  |  |  |  |  | 
CC(C)(C)C(=O)OC12/C(=N/O)CCCCCC1c1ccccc12 (configuration not stated) | 28.8 | 64 | 34.4 | 35.4 | 30.9 | 31.3 | 31.3 | 28.5 | 35 |  | 33.6 |  |  |  |  |  |  |  |  | 
CCOC(=O)C(C)(C)Oc1ccc(/C=C/C(=O)c2ccc(Cl)cc2)cc1 | 30.7 | 61.9 | 76.8 | 70.5 | 53 | 53.2 | 37.1 | 41.4 |  |  |  |  |  |  |  |  |  |  |  | 
Cc1c(C(=O)/C=C/c2ccc(N(C)C)cc2)c(=O)n(-c2ccccc2)n1C | > 100 | > 100 | > 100 | > 100 |  | > 100 | > 100 | > 100 | > 100 |  | > 100 |  |  |  |  |  |  |  |  | 
CCOC(=N)CC(=O)c1ccccc1 | > 100 | > 100 | > 100 | > 100 |  | > 100 | > 100 | > 100 | > 100 |  | > 100 |  |  |  |  |  |  |  |  | 
O=[N+]([O-])CCc1cccc([N+](=O)[O-])c1 | > 100 | > 100 | > 100 | > 100 | > 100 | > 100 | > 100 | > 100 | > 100 |  |  |  |  |  |  |  |  |  |  | 
Cc1cc(Cl)ccc1NC(=O)C(=O)C(C(=O)c1ccc2ccccc2c1)C1OC(=O)c2ccccc21 (configuration not stated) | 32.2 | 22.2 |  | 7.69 | 35.5 | 28.5 | 26.3 | 47.8 | 23.4 |  | 49.1 |  |  |  |  |  |  |  |  | 
CSc1n[n+]2c(s1)SCCC2 | > 100 | > 100 | > 100 |  |  | 48.3 | > 100 | > 100 | > 100 |  |  |  |  |  |  |  |  |  |  | 
CN(C)c1nc(=Nc2cccc(Cl)c2)ss1 | 27.8 | 22.1 | 22.4 | > 100 | 17.5 |  | > 100 | 36 | 15 |  | > 100 |  |  |  |  |  |  |  |  | 
CCCCCCCCCCCCCCCCCC(=O)OCC(COC(=O)CCCN)OC(=O)CCCN (configuration not stated) | 42.5 | > 100 | 70.8 | 44.4 |  | 31.1 | 31.9 | 34.4 | 50.4 |  | 34.3 |  |  |  |  |  |  |  |  | 
FC(F)(F)C1(Br)C(c2ccccc2)=C1c1ccccc1 | 28 | 30.2 | > 100 | 46.3 | > 100 | 34.9 | 32.7 | 43 |  |  | > 100 |  |  |  |  |  |  |  |  | 
COc1cccc(/C=C/C(=O)c2ccc(Cl)cc2Cl)c1 | > 50 |  | > 50 | 25.7 | 3.86 | 18.4 | 28.7 | 17.4 | > 50 |  |  | 15.3 |  | 0.773 | 9.79 | 1.1 | 8.85 | 9.72 | 9.33 | 18
Cn1c2ccc(Br)cc2c2c3c(c4c5ccccc5[nH]c4c21)C(=O)N(O)C3=O | 0.193 | 0.956 | 0.312 | 2.92 | 0.672 | 0.73 | 0.398 |  | 0.286 | 0.265 | 0.773 | 0.0537 | 0.0412 | 0.046 | 1.06 | 0.151 | 0.231 | 0.0872 |  | 0.0506
C=C[C@@]1(O)CCCC2=C(C(=O)OCC)CC[C@]21C |  | > 100 | > 100 | > 100 | > 100 | > 100 | > 100 | > 100 | > 100 |  | > 100 |  |  |  |  |  |  |  |  | 
COc1cccc(NC(=O)c2sc3nc4c(cc3c2N)C(=O)CCC4)c1 | > 100 | > 100 | > 100 | > 100 | > 100 | 2.15 | > 100 |  | 2.41 | 0.183 | > 78.1 | 1.71 | 0.0893 | 0.553 | 2.18 | 0.332 | 0.0834 | 0.346 |  | 0.0499
COc1ccc(C2SCC(=O)N2NC(=O)c2ccc(NC(C)=O)cc2)cc1 (configuration not stated) |  |  | > 100 | > 100 | > 100 | > 100 | > 100 | > 100 |  |  | > 100 |  |  |  |  |  |  |  |  | 
